Measurements as given in patent US9765092B2, “Tricyclic piperidine compounds” (ACTELION PHARMACEUTICALS LTD, priority 2013, dated 2017).

The compounds below were run against human TPH1 (Homo sapiens (Human), UniProt P17752) (assay: Biochemical in vitro assay using fluorescence readout (TPH1 inhibition)). Settings: not given.
Sequence of human TPH1 (P17752 whole entry): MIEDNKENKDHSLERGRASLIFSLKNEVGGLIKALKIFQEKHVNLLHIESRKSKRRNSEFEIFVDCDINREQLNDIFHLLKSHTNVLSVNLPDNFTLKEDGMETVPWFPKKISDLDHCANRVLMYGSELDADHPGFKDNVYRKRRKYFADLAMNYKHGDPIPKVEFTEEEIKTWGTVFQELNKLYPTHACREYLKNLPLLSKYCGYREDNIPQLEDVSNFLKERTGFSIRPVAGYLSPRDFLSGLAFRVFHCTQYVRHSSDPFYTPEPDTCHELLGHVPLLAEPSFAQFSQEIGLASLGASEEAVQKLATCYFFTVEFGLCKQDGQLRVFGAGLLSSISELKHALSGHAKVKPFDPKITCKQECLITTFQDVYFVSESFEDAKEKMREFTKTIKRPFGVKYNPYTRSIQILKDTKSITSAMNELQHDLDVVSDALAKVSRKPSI

**Q.** Which IC50 does the source give for `CCc1nc(N2CCCS2(=O)=O)ccc1OCC(=O)N1CCc2nc3sc(C(F)(F)F)nn3c2C1c1ccc(Cl)cc1F` (stereo not drawn) [Example 5.1.3, 1-(5-(4-chloro-2-fluorophenyl)-2-(trifluoromethyl)-7,8-dihydro-[1,3,4]thiadiazolo[2′,3′:2,3]imidazo[4,5-c]pyridin-6(5H)-yl)-2-((6-(1,1-dioxidoisothiazolidin-2-yl)-2-ethylpyridin-3-yl)oxy)ethanone] here?
**A.** 0.01 µM

Same assay, conditions: human TPH1, fluorescence readout

**Q.** Which IC50 does the source give for `CS(=O)(=O)Nc1ccc(OCC(=O)N2CCc3nc4sc(C5CC5)nn4c3C2c2ccc(Cl)cc2F)c(Cl)n1` (stereo not drawn) [Example 4.1.1, N-(6-chloro-5-(2-(5-(4-chloro-2-fluorophenyl)-2-cyclopropyl-7,8-dihydro-[1,3,4]thiadiazolo-[2′,3′:2,3]imidazo[4,5-c]pyridin-6(5H)-yl)-2-oxoethoxy)pyridin-2-yl)methanesulfonamide] here?
**A.** 0.016 µM

**Q.** With `N#Cc1ccc(OCC(=O)N2CCc3nc4sc(C5CC5)nn4c3C2c2ccc(Cl)cc2F)c(Cl)c1` (stereo not drawn) [Example 4.1.2, 3-chloro-4-(2-(5-(4-chloro-2-fluorophenyl)-2-cyclopropyl-7,8-dihydro-[1,3,4]thiadiazolo-[2′,3′:2,3]imidazo[4,5-c]pyridin-6(5H)-yl)-2-oxoethoxy)benzonitrile] as the compound, how does the IC50 read?
**A.** 0.023 µM

**Q.** How did the IC50 turn out when `O=C(COc1ccc(-c2ncco2)nc1Cl)N1CCc2nc3sc(C4CC4)nn3c2C1c1ccc(Cl)cc1F` (stereo not drawn) [Example 4.1.3, 1-(5-(4-chloro-2-fluorophenyl)-2-cyclopropyl-7,8-dihydro-[1,3,4]thiadiazolo[2′,3′:2,3]imidazo[4,5-c]pyridin-6(5H)-yl)-2-((2-chloro-6-(oxazol-2-yl)pyridin-3-yl)oxy)ethanone] was run?
**A.** 0.013 µM

**Q.** `CN1CCN(c2ccc(OCC(=O)N3CCc4nc5sc(C6CC6)nn5c4C3c3ccc(Cl)cc3F)c(Cl)n2)CC1` (stereo not drawn) [Example 4.1.4, 1-(5-(4-chloro-2-fluorophenyl)-2-cyclopropyl-7,8-dihydro-[1,3,4]thiadiazolo[2′,3′:2,3]imidazo[4,5-c]pyridin-6(5H)-yl)-2-((2-chloro-6-(4-methylpiperazin-1-yl)pyridin-3-yl)oxy)ethanone] was tested. Which IC50 did it give?
**A.** 0.012 µM

**Q.** How did the IC50 turn out when `CS(=O)(=O)Nc1ccc(OCC(=O)N2CCc3nc4sc(C(F)(F)F)nn4c3C2c2ccc(Cl)cc2F)c(Cl)n1` (stereo not drawn) [Example 5.1.1, N-(6-chloro-5-(2-(5-(4-chloro-2-fluorophenyl)-2-(trifluoromethyl)-7,8-dihydro-[1,3,4]thiadiazolo-[2′,3′:2,3]imidazo[4,5-c]pyridin-6(5H)-yl)-2-oxoethoxy)pyridin-2-yl)methanesulfonamide] was run?
**A.** 0.05 µM

**Q.** How did the IC50 turn out when `CCc1nc(NS(C)(=O)=O)ccc1OCC(=O)N1CCc2nc3sc(C(F)(F)F)nn3c2C1c1ccc(Cl)cc1F` (stereo not drawn) [Example 5.1.2, N-(5-(2-(5-(4-chloro-2-fluorophenyl)-2-(trifluoromethyl)-7,8-dihydro-[1,3,4]thiadiazolo[2′,3′:2,3]imidazo[4,5-c]pyridin-6(5H)-yl)-2-oxoethoxy)-6-ethylpyridin-2-yl)methanesulfonamide] was run?
**A.** 0.032 µM

**Q.** For `CCc1nc(N2CCCS2(=O)=O)ccc1OCC(=O)N1CCc2nc3sc(C(F)(F)F)nn3c2[C@@H]1c1ccc(Cl)cc1F` [Example 5.1.4], which IC50 is on record?
**A.** 0.007 µM

**Q.** Which IC50 does the source give for `CCc1nc(N2CCCS2(=O)=O)ccc1OCC(=O)N1CCc2nc3sc(C(F)(F)F)nn3c2C1c1ncc(C)cc1F` (stereo not drawn) [Example 5.2.1, 2-((6-(1,1-dioxidoisothiazolidin-2-yl)-2-ethylpyridin-3-yl)oxy)-1-(5-(3-fluoro-5-methylpyridin-2-yl)-2-(trifluoromethyl)-7,8-dihydro-[1,3,4]thiadiazolo[2′,3′:2,3]imidazo[4,5-c]pyridin-6(5H)-yl)ethanone] here?
**A.** 0.013 µM

**Q.** `CCc1nc(NS(C)(=O)=O)ccc1OCC(=O)N1CCc2nc3sc(C(F)(F)F)nn3c2C1c1ncc(C)cc1F` (stereo not drawn) [Example 5.2.2, N-(6-ethyl-5-(2-(5-(3-fluoro-5-methylpyridin-2-yl)-2-(trifluoromethyl)-7,8-dihydro-[1,3,4]thiadiazolo[2′,3′:2,3]imidazo[4,5-c]pyridin-6(5H)-yl)-2-oxoethoxy)pyridin-2-yl)methanesulfonamide] was tested. Which IC50 did it give?
**A.** 0.042 µM

**Q.** With `CCc1nc(NS(C)(=O)=O)ccc1OCC(=O)N1CCc2nc3sc(C(F)(F)F)nn3c2C1c1ccc(C)cc1F` (stereo not drawn) [Example 5.3.1, N-(6-ethyl-5-(2-(5-(2-fluoro-4-methylphenyl)-2-(trifluoromethyl)-7,8-dihydro-[1,3,4]thiadiazolo[2′,3′:2,3]imidazo[4,5-c]pyridin-6(5H)-yl)-2-oxoethoxy)pyridin-2-yl)methanesulfonamide] as the compound, how does the IC50 read?
**A.** 0.028 µM

**Q.** `CCc1nc(N2CCCS2(=O)=O)ccc1OCC(=O)N1CCc2nc3sc(C(F)(F)F)nn3c2C1c1sc(C)nc1C` (stereo not drawn) [Example 5.4.1, 1-(5-(2,4-dimethylthiazol-5-yl)-2-(trifluoromethyl)-7,8-dihydro-[1,3,4]thiadiazolo[2′,3′:2,3]imidazo[4,5-c]pyridin-6(5H)-yl)-2-((6-(1,1-dioxidoisothiazolidin-2-yl)-2-ethylpyridin-3-yl)oxy)ethanone] was tested. Which IC50 did it give?
**A.** 0.025 µM

**Q.** With `CCc1nc(NS(C)(=O)=O)ccc1OCC(=O)N1CCc2nc3sc(C(F)(F)F)nn3c2C1c1sc(C)nc1C` (stereo not drawn) [Example 5.4.2, N-(5-(2-(5-(2,4-dimethylthiazol-5-yl)-2-(trifluoromethyl)-7,8-dihydro-[1,3,4]thiadiazolo[2′,3′:2,3]imidazo[4,5-c]pyridin-6(5H)-yl)-2-oxoethoxy)-6-ethylpyridin-2-yl)methanesulfonamide] as the compound, how does the IC50 read?
**A.** 0.027 µM

**Q.** With `COc1ccc(C2c3c(nc4sccn34)CCN2C(=O)COc2ccc3ccccc3c2)cc1OC` (stereo not drawn) [Example 6.1.1, 1-(5-(3,4-dimethoxyphenyl)-7,8-dihydrothiazolo-[2′,3′:2,3]imidazo[4,5-c]pyridin-6(5H)-yl)-2-(naphthalen-2-yloxy)ethanone] as the compound, how does the IC50 read?
**A.** 0.004 µM

**Q.** How did the IC50 turn out when `COc1ccc(C2c3c(nc4sccn34)CCN2C(=O)COc2ccc(CN3CCOCC3)cc2Cl)cc1OC` (stereo not drawn) [Example 6.1.2, 2-(2-chloro-4-(morpholinomethyl)phenoxy)-1-(5-(3,4-dimethoxyphenyl)-7,8-dihydrothiazolo[2′,3′:2,3]-imidazo[4,5-c]pyridin-6(5H)-yl)ethanone] was run?
**A.** 0.005 µM

**Q.** How did the IC50 turn out when `COc1ccc(C2c3c(nc4sccn34)CCN2C(=O)COc2ccc(Cl)cc2Cl)cc1OC` (stereo not drawn) [Example 6.1.3, 2-(2,4-dichlorophenoxy)-1-(5-(3,4-dimethoxyphenyl)-7,8-dihydrothiazolo[2′,3′:2,3]imidazo[4,5-c]pyridin-6(5H)-yl)ethanone] was run?
**A.** 0.007 µM

**Q.** How did the IC50 turn out when `O=C(COc1ccc(CN2CCOCC2)cc1Cl)N1CCc2nc3sccn3c2C1c1cccnc1F` (stereo not drawn) [Example 6.2.1, 2-(2-chloro-4-(morpholinomethyl)phenoxy)-1-(5-(2-fluoropyridin-3-yl)-7,8-dihydrothiazolo[2′,3′:2,3]imidazo[4,5-c]pyridin-6(5H)-yl)ethanone] was run?
**A.** 0.012 µM

**Q.** For `O=C(COc1ccccc1C(F)(F)F)N1CCc2nc3sccn3c2C1c1cccnc1F` (stereo not drawn) [Example 6.2.2, 1-(5-(2-fluoropyridin-3-yl)-7,8-dihydrothiazolo[2′,3′:2,3]-imidazo[4,5-c]pyridin-6(5H)-yl)-2-(2-(trifluoromethyl)-phenoxy)ethanone], which IC50 is on record?
**A.** 0.081 µM

**Q.** With `Cc1ccc(OCC(=O)N2CCc3nc4sccn4c3C2c2cccnc2F)cc1` (stereo not drawn) [Example 6.2.3, 1-(5-(2-fluoropyridin-3-yl)-7,8-dihydrothiazolo[2′,3′:2,3]-imidazo[4,5-c]pyridin-6(5H)-yl)-2-(p-tolyloxy)ethanone] as the compound, how does the IC50 read?
**A.** 0.052 µM

**Q.** For `Cc1ccccc1OCC(=O)N1CCc2nc3sccn3c2C1c1cccnc1F` (stereo not drawn) [Example 6.2.4, 1-(5-(2-fluoropyridin-3-yl)-7,8-dihydrothiazolo[2′,3′:2,3]-imidazo[4,5-c]pyridin-6(5H)-yl)-2-(o-tolyloxy)ethanone], which IC50 is on record?
**A.** 0.266 µM

**Q.** Which IC50 does the source give for `Cc1cc(Cl)ccc1OCC(=O)N1CCc2nc3sccn3c2C1c1cccnc1F` (stereo not drawn) [Example 6.2.5, 2-(4-chloro-2-methylphenoxy)-1-(5-(2-fluoropyridin-3-yl)-7,8-dihydrothiazolo[2′,3′:2,3]imidazo[4,5-c]pyridin-6(5H)-yl)ethanone] here?
**A.** 0.026 µM

**Q.** Which IC50 does the source give for `Cn1nc(OCC(=O)N2CCc3nc4sccn4c3C2c2cccnc2F)c(C(F)(F)F)c1Cl` (stereo not drawn) [Example 6.2.6, 2-((5-chloro-1-methyl-4-(trifluoromethyl)-1H-pyrazol-3-yl)oxy)-1-(5-(2-fluoropyridin-3-yl)-7,8-dihydrothiazolo[2′,3′:2,3]imidazo[4,5-c]pyridin-6(5H)-yl)ethanone] here?
**A.** 0.419 µM

**Q.** How did the IC50 turn out when `O=C(COc1ccc(CN2CCOCC2)nc1Cl)N1CCc2nc3sccn3c2C1c1cccnc1F` (stereo not drawn) [Example 6.2.7, ((2-chloro-6-(morpholinomethyl)pyridin-3-yl)oxy)-1-(5-(2-fluoropyridin-3-yl)-7,8-dihydrothiazolo[2′,3′:2,3]-imidazo[4,5-c]pyridin-6(5H)-yl)ethanone] was run?
**A.** 0.235 µM

**Q.** Which IC50 does the source give for `COc1ccc(C2c3c(nc4sccn34)CCN2C(=O)COc2ccc(CN3CCOCC3)cc2Cl)c(F)c1` (stereo not drawn) [Example 6.3.1, 2-(2-chloro-4-(morpholinomethyl)phenoxy)-1-(5-(2-fluoro-4-methoxyphenyl)-7,8-dihydrothiazolo[2′,3′:2,3]-imidazo[4,5-c]pyridin-6(5H)-yl)ethanone] here?
**A.** 0.005 µM

**Q.** For `COc1ccc(C2c3c(nc4sccn34)CCN2C(=O)COc2ccc(CN3CCOCC3)nc2Cl)c(F)c1` (stereo not drawn) [Example 6.3.2, 2-((2-chloro-6-(morpholinomethyl)pyridin-3-yl)oxy)-1-(5-(2-fluoro-4-methoxyphenyl)-7,8-dihydrothiazolo-[2′,3′:2,3]imidazo[4,5-c]pyridin-6(5H)-yl)ethanone], which IC50 is on record?
**A.** 0.009 µM

**Q.** `COc1ccc(C2c3c(nc4sccn34)CCN2C(=O)COc2ccc3ccncc3c2)c(F)c1` (stereo not drawn) [Example 6.3.3, 1-(5-(2-fluoro-4-methoxyphenyl)-7,8-dihydrothiazolo[2′,3′:2,3]imidazo[4,5-c]pyridin-6(5H)-yl)-2-(isoquinolin-7-yloxy)ethanone] was tested. Which IC50 did it give?
**A.** 0.004 µM

**Q.** Which IC50 does the source give for `CCc1cc(F)ccc1OCC(=O)N1CCc2nc3sccn3c2C1c1ccc(OC)cc1F` (stereo not drawn) [Example 6.3.4, 2-(2-ethyl-4-fluorophenoxy)-1-(5-(2-fluoro-4-methoxyphenyl)-7,8-dihydrothiazolo[2′,3′:2,3]-imidazo[4,5-c]pyridin-6(5H)-yl)ethanone] here?
**A.** 0.008 µM
